The assay has as its system RSV A2. The assay can be described thus: RSV antiviral cytopathic effect (CPE) assay. In kind it is cell-based. To be noted: human respiratory syncytial virus, HEp-2, 120 h, HEp2 cells infected with RSV A2 (moi ~0.01), 5 days, MTT readout. The protocol:
Compounds of the invention were tested for their antiviral activity against respiratory syncytial virus. Cytopathic effect (CPE) assays were performed essentially as described in the literature (see for example Watanabe et al, 1994, J. Virological Methods, 48:257). Serial dilutions of the test compounds were made in 96 well plates. HEp2 cells (1.0×10^4 cells/well) were infected with RSV at a low multiplicity of infection (e.g. RSV A2 at an moi of ˜0.01) and added to plates to assess antiviral activity. Uninfected HEp2 cells were used to assess compound cytotoxicity. Assays were incubated for 5 days at 37° C. in a 5% CO2 atmosphere. The extent of CPE was determined via metabolism of the vital dye 3-(4,5-dimethylthiaxol-2-yl)-2,5-diphenyltetrazolium bromide (MTT). MTT (1 mg/ml) was added to each well and plates incubated for 2 hours incubation at 37° C. Wells were aspirated, iso-propanol (200 μL) was added and absorbance values read at 540/650 nm. Compound concentrations that inhibited CPE by 50% (EC50) and developed cytotoxicity (CC50) were calculated using non-linear regression analysis.
Representative mean EC50 values obtained are also provided. In the inventors' experience, replicate EC50 values usually fall within three standard deviations of the mean.

Where [1] appears, read: read-out: Activity Range (RSV A2 EC50).
The mark [2] stands for this setting: mean EC50, read-out: RSV A2 EC50.

Where two headings read alike, the source gives them in different places.

As a reminder, the EC50 is the midpoint of the concentration-response curve. Take `COc1ccc(C23Cn4cccc4C(=O)N2CCN3C(=O)c2cccnc2)cc1` (centres unmarked) [Compound 71]: the EC50 was over 10000 nM under setting [1] and 11000 nM under setting [2].
The like results for `CCC12Cn3cccc3C(=O)N1CCN2C(=O)c1conc1C` (centres unmarked) [Compound 20] were, in that order, 500 to 10000 nM and 6700 nM.
Consider `COc1ccc(C23Cn4cc(-c5nnn[nH]5)cc4C(=O)N2CCN3C(=O)c2conc2C)cc1` (centres unmarked) [Compound 75, 10a-(4-methoxyphenyl)-1-[(3-methyl-1,2-oxazol-4-yl)carbonyl]-7-(1H-tetrazol-5-yl)-2,3,10,10a-tetrahydro-1H,5H-imidazo[1,2-a]pyrrolo[1,2-d]pyrazin-5-one], for which the EC50 under setting [1] was over 10000 nM.
Turning to `COc1ccc(C23Cn4cccc4C(=O)N2CCN3C(=O)c2ocnc2C)cc1` (centres unmarked) [Compound 55], the EC50 is 500 to 10000 nM under setting [1] and 2500 nM under setting [2].
The like results for `COc1ccc(C23Cn4cccc4C(=O)N2CCN3C(=O)c2ccnn2C)cc1` (centres unmarked) [Compound 61] were, in that order, 500 to 10000 nM and 980 nM.
The like results for `COc1ccc(C23Cn4cc(-c5cn(C)nc5C)cc4C(=O)N2CCN3C(=O)c2conc2C)cc1` (centres unmarked) [Compound 91] were, in that order, 100 to 499 nM and 140 nM.
The like results for `Cc1nocc1C(=O)N1CCN2C(=O)c3cccn3CC12c1ccc(OCCN2CCOCC2)cc1` (centres unmarked) [Compound 110, 1-[(3-methyl-1,2-oxazol-4-yl)carbonyl]-10a-{4-[2-(morpholin-4-yl)ethoxy]phenyl}-2,3,10,10a-tetrahydro-1H,5H-imidazo[1,2-a]pyrrolo[1,2-d]pyrazin-5-one] were, in that order, 500 to 10000 nM and 680 nM.
`COc1ccc(C23Cn4cc(-c5nnn(C)n5)cc4C(=O)N2CCN3C(=O)c2conc2C)cc1` (centres unmarked) [Compound 146, 10a-(4-methoxyphenyl)-1-[(3-methyl-1,2-oxazol-4-yl)carbonyl]-7-(2-methyl-2H-tetrazol-5-yl)-2,3,10,10a-tetrahydro-1H,5H-imidazo[1,2-a]pyrrolo[1,2-d]pyrazin-5-one]: the EC50 is, setting by setting: under setting [1], under 49 nM; under setting [2], 46 nM.
Taken in the same sequence, the figures for `Cc1ocnc1C(=O)N1CCN2C(=O)c3cccn3CC12c1ccc(Cl)cc1` (centres unmarked) [Compound 3] were 100 to 499 nM and 140 nM.
Taken in the same sequence, the figures for `Cc1nocc1C(=O)N1CCN2C(=O)c3cccn3CC12c1ccc(F)cc1` (centres unmarked) [Compound 2] were under 49 nM and 21 nM.
The like results for `Cc1nocc1C(=O)N1CCN2C(=O)c3cccn3CC12c1ccc(O)nc1` (centres unmarked) [Compound 142, 10a-(6-hydroxypyridin-3-yl)-1-[(3-methyl-1,2-oxazol-4-yl)carbonyl]-2,3,10,10a-tetrahydro-1H,5H-imidazo[1,2-a]pyrrolo[1,2-d]pyrazin-5-one] were, in that order, 500 to 10000 nM and 6700 nM.
As for `COc1ccc(C23Cn4cccc4C(=O)N2CCN3C(=O)c2c(C)noc2C)cc1` (centres unmarked) [Compound 53], the EC50 was 100 to 499 nM under setting [1] and 260 nM under setting [2].
Taken in the same sequence, the figures for `Cc1ccc(C23Cn4cccc4C(=O)N2CCN3C(=O)c2conc2C)cn1` (centres unmarked) [Compound 77] were 50 to 99 nM and 56 nM.
Taken in the same sequence, the figures for `Cc1nocc1C(=O)N1CCN2C(=O)c3ccnn3CC12c1ccc(Cl)cc1` (centres unmarked) [Compound 72] were under 49 nM and 48 nM.
The like results for `Cc1nocc1C(=O)N1CCN2C(=O)c3c(C)ncn3CC12c1ccc(Cl)cc1` (centres unmarked) [Compound 12] were, in that order, 500 to 10000 nM and 7500 nM.
Take `Cc1nocc1C(=O)N1CCN2C(=O)c3ccc(Cl)n3CC12C1CCOCC1` (centres unmarked) [Compound 81, 8-chloro-1-[(3-methyl-1,2-oxazol-4-yl)carbonyl]-10a-(tetrahydro-2H-pyran-4-yl)-2,3,10,10a-tetrahydro-1H,5H-imidazo[1,2-a]pyrrolo[1,2-d]pyrazin-5-one]: the EC50 was 50 to 99 nM under setting [1] and 67 nM under setting [2].
The like results for `COc1ccc(C23Cn4c(C#N)ccc4C(=O)N2CCN3C(=O)c2conc2C)cc1` (centres unmarked) [Compound 106, 10a-(4-methoxyphenyl)-1-[(3-methyl-1,2-oxazol-4-yl)carbonyl]-5-oxo-2,3,10,10a-tetrahydro-1H,5H-imidazo[1,2-a]pyrrolo[1,2-d]pyrazine-8-carbonitrile] were, in that order, under 49 nM and 4.1 nM.
`COc1ccc(C23Cn4cccc4C(=O)N2CCN3C(=O)c2cccn2C)cc1` (centres unmarked) [Compound 60]: the EC50 reads like this: under setting [1], 500 to 10000 nM; under setting [2], 4700 nM.
Taken in the same sequence, the figures for `O=C1c2cccn2CC2(c3ccc(Cl)cc3)N1CCN2C(=O)C1CC1` (centres unmarked) [Compound 18] were 500 to 10000 nM and 4100 nM.
For the compound `Cc1nocc1C(=O)N1CCN2C(=O)c3ccc(C)n3CC12c1ccc(F)cc1` (centres unmarked) [Compound 154, 10a-(4-fluorophenyl)-8-methyl-1-[(3-methyl-1,2-oxazol-4-yl)carbonyl]-2,3,10,10a-tetrahydro-1H,5H-imidazo[1,2-d]pyrrolo[1,2-d]pyrazin-5-one], the EC50 under setting [1] was under 49 nM and the EC50 under setting [2] was found to be 2.3 nM.
Taken in the same sequence, the figures for `COc1ccc(C23Cn4cccc4C(=O)N2CCN3C(=O)c2snnc2C)cc1` (centres unmarked) [Compound 56] were 100 to 499 nM and 370 nM.
Taken in the same sequence, the figures for `COc1ccc(C23Cn4cc(-n5ccnn5)cc4C(=O)N2CCN3C(=O)c2conc2C)cc1` (centres unmarked) [Compound 113, 10a-(4-methoxyphenyl)-1-[(3-methyl-1,2-oxazol-4-yl)carbonyl]-7-(1H-1,2,3-triazol-1-yl)-2,3,10,10a-tetrahydro-1H,5H-imidazo[1,2-a]pyrrolo[1,2-d]pyrazin-5-one] were 100 to 499 nM and 320 nM.
Regarding `Cc1nocc1C(=O)N1CCN2C(=O)c3cc(-c4cccs4)nn3CC12c1ccc(Cl)cc1` (centres unmarked) [Compound 141], the EC50 is, setting by setting: under setting [1], under 49 nM; under setting [2], 39 nM.
Consider `O=C1c2cc(Br)cn2CC2(c3ccc(F)cc3)NCCN12` (centres unmarked) [Compound 85], for which, under setting [1], the EC50 was over 10000 nM.
In the case of `Cc1ccc(C23Cn4cccc4C(=O)N2CCN3C(=O)c2cnoc2C)cc1F` (centres unmarked) [Compound 14], the EC50 reads like this: under setting [1], 50 to 99 nM; under setting [2], 94 nM.
Taken in the same sequence, the figures for `COc1ccc(C23Cn4cc(-c5ccnn5C)cc4C(=O)N2CCN3C(=O)c2conc2C)cc1` (centres unmarked) [Compound 87] were 50 to 99 nM and 500 nM.
Taken in the same sequence, the figures for `Cc1cc(C23Cn4cccc4C(=O)N2CCN3C(=O)c2conc2C)ccn1` (centres unmarked) [Compound 119] were 50 to 99 nM and 96 nM.
Regarding `Cc1nocc1C(=O)N1CCN2C(=O)c3cccn3CC12c1ccc(C(F)(F)F)nc1` (centres unmarked) [Compound 105], the EC50 reads like this: under setting [1], 100 to 499 nM; under setting [2], 130 nM.
The like results for `Cc1nocc1C(=O)N1CCN2C(=O)c3ccc(C)n3CC12c1ccc(CO)cc1` (centres unmarked) [Compound 153] were, in that order, under 49 nM and 6.2 nM.
The like results for `O=C(c1ccon1)N1CCN2C(=O)c3cccn3CC12c1ccc(Cl)cc1` (centres unmarked) [Compound 16] were, in that order, 500 to 10000 nM and 980 nM.
Regarding `Cc1ccc(C23Cn4cc(-c5ccccn5)cc4C(=O)N2CCN3C(=O)c2conc2C)cc1` (centres unmarked) [Compound 93, 1-[(3-methyl-1,2-oxazol-4-yl)carbonyl]-10a-(4-methylphenyl)-7-(pyridin-2-yl)-2,3,10,10a-tetrahydro-1H,5H-imidazo[1,2-a]pyrrolo[1,2-d]pyrazin-5-one], the EC50 under setting [1] was under 49 nM and the EC50 under setting [2] is 8.2 nM.
The like results for `Cc1nocc1C(=O)N1CCN2C(=O)c3cccn3CC12c1ccc(OC(F)F)cc1` (centres unmarked) [Compound 1, 10a-[4-(difluoromethoxy)phenyl]-1-[(3-methyl-1,2-oxazol-4-yl)carbonyl]-2,3,10,10a-tetrahydro-1H,5H-imidazo[1,2-a]pyrrolo[1,2-d]pyrazin-5-one] were, in that order, 50 to 99 nM and 89 nM.
Taken in the same sequence, the figures for `Cc1ccc(C23Cn4cccc4C(=O)N2CCN3C(=O)c2conc2C)cc1` (centres unmarked) [Compound 9] were under 49 nM and 13 nM.
The like results for `Cc1nocc1C(=O)N1CCN2C(=O)c3cc(-c4cccn4C)nn3CC12c1ccc(Cl)cc1` (centres unmarked) [Compound 140] were, in that order, 500 to 10000 nM and 550 nM.
For `Cc1nocc1C(=O)N1CCN2C(=O)c3cccn3CC12c1cccnc1` (centres unmarked) [Compound 101, 1-[(3-methyl-1,2-oxazol-4-yl)carbonyl]-10a-(pyridin-3-yl)-2,3,10,10a-tetrahydro-1H,5H-imidazo[1,2-a]pyrrolo[1,2-d]pyrazin-5-one], the EC50 under setting [1] is 500 to 10000 nM and the EC50 under setting [2] amounted to 730 nM.
The like results for `COc1ccc(C23Cn4c(C#N)ccc4C(=O)N2CCN3C(=O)c2conc2C)cn1` (centres unmarked) [Compound 133] were, in that order, under 49 nM and 7 nM.
For `Cc1nocc1C(=O)N1CCN2C(=O)c3ccc(Cl)n3CC12c1ccc(Cl)cc1` (centres unmarked) [Compound 22, 8-chloro-10a-(4-chlorophenyl)-1-[(3-methyl-1,2-oxazol-4-yl)carbonyl]-2,3,10,10a-tetrahydro-1H,5H-imidazo[1,2-a]pyrrolo[1,2-d]pyrazin-5-one], the EC50 reads like this: under setting [1], under 49 nM; under setting [2], 2.2 nM.
The like results for `Cc1nocc1C(=O)N1CCN2C(=O)c3cccn3CC12c1ccc(O)cc1` (centres unmarked) [Compound 69] were, in that order, 100 to 499 nM and 160 nM.

The record behind these values is patent publication US8604034B2, “Substituted imidazo[1,2-α]pyrrolo[1,2-d]pyrazines for treating respiratory syncytial virus (RSV) infections” (Biota Scientific Management Pty Ltd., priority 2010, dated 2013).
